Target: Influenza PB2 (Influenza A virus, UniProt P03428)
Assay: biochemical
Format: binding
Details: read-out: Influenza PB2 affinity, IC50

Sequence of Influenza PB2 (P03428 whole entry, looked up): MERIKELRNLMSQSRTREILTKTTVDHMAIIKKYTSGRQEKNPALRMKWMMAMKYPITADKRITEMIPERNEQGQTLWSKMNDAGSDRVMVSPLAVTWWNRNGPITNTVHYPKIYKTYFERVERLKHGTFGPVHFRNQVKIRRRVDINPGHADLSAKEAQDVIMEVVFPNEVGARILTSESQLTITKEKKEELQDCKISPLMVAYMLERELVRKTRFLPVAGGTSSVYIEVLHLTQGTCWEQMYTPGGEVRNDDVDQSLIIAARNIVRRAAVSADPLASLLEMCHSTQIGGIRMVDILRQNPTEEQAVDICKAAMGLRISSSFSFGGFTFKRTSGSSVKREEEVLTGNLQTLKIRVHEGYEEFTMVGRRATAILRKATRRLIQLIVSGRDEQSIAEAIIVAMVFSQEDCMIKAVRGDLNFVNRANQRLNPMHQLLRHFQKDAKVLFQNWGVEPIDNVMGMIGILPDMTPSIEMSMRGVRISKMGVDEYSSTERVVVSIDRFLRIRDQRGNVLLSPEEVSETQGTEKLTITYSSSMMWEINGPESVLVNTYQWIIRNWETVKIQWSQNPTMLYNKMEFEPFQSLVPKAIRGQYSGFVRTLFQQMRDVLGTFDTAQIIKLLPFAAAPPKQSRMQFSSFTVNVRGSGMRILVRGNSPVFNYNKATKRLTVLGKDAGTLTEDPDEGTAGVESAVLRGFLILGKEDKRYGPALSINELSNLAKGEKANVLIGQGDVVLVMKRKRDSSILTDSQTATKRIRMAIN

CCOC(=O)[C@H]1C2CCC(CC2)[C@@H]1n1cc(Cl)c2cnc(-c3cn(S(=O)(=O)c4ccc(C)cc4)c4ncc(F)cc34)nc21 [Compound B125]
IC50: > 100 µM

CNC(=O)NC1CCCC(n2ccc3cnc(-c4c[nH]c5ncc(F)cc45)nc32)C1 (stereo not shown) [Compound B57]
IC50: 10 to 100 µM

O=C(O)[C@@H]1CCCC[C@H]1n1ccc2cnc(-c3c[nH]c4ncc(F)cc34)nc21 (single isomer, unassigned) [Compound B24]
IC50: < 1 µM

CCCCCOCCOCCN(C)C(=O)N[C@@H]1CCC[C@H](n2ccc3cnc(-c4c[nH]c5ncc(F)cc45)nc32)C1 [Compound B42]
IC50: > 100 µM

CCOC(=O)[C@H]1C2CCC(CC2)[C@@H]1n1cc(Cl)c2cnc(-c3c[nH]c4ncc(F)cc34)nc21 [Compound B126]
IC50: > 100 µM

COC(=O)/C=C/n1ccc2cnc(-c3c[nH]c4ncc(F)cc34)nc21 [Compound B23]
IC50: 10 to 100 µM

CN(C)C(=O)CCn1ccc2c(-c3c[nH]c4ncc(F)cc34)ncnc21 [Compound A4]
IC50: 10 to 100 µM

O=C(O)CN1CCc2cnc(-c3c[nH]c4ncc(F)cc34)nc21 [Compound B9]
IC50: > 100 µM

O=C(O)[C@H]1CCCC1n1ccc2cnc(-c3c[nH]c4ncc(F)cc34)nc21 (single isomer, unassigned) [Compound B21]
IC50: 1 to 10 µM

CNC(=O)N[C@H]1CC[C@@H](n2ccc3cnc(-c4c[nH]c5ncc(F)cc45)nc32)CC1 [Compound B68]
IC50: 1 to 10 µM

O=C(Cn1ccc2c(-c3c[nH]c4ncc(F)cc34)ncnc21)N[C@@H](Cc1ccccc1)C(=O)O [Compound A11]
IC50: 10 to 100 µM

O=C(O)Cn1ccc2c(-c3c[nH]c4ncc(F)cc34)ncnc21 [Compound A3]
IC50: 1 to 10 µM

CCOCCOCCOCC(=O)N1CCC[C@H](n2ccc3cnc(-c4c[nH]c5ncc(F)cc45)nc32)C1 [Compound B32]
IC50: 10 to 100 µM

CCOCCOCCOCCNC(=O)N[C@H]1CCC[C@@H](n2ccc3cnc(-c4c[nH]c5ncc(F)cc45)nc32)C1 [Compound B27]
IC50: 10 to 100 µM

O=C(O)[C@@H]1C2CCC(CC2)C1n1cc(F)c2cnc(-c3c[nH]c4ncc(Cl)cc34)nc21 (single isomer, unassigned) [Compound B143]
IC50: < 1 µM

O=C(O)[C@H]1C2CCC(CC2)[C@@H]1n1ccc2cnc(-c3c[nH]c4ncc(F)cc34)nc21 [Compound B123]
IC50: 1 to 10 µM

Fc1cnc2[nH]cc(-c3ncc4c(F)cn(CC5CCCCN5)c4n3)c2c1 (stereo not shown) [Compound B76]
IC50: 10 to 100 µM

O=C(O)[C@@H]1C2CCC(CC2)[C@H]1n1cc(F)c2cnc(-c3c[nH]c4ncc(C(F)(F)F)cc34)nc21 [Compound B216]
IC50: 1 to 10 µM

CCOCCOCCOCC(=O)N[C@@H]1CCC[C@H](n2ccc3cnc(-c4c[nH]c5ncc(F)cc45)nc32)C1 [Compound B28]
IC50: 10 to 100 µM

COC(=O)NCCn1cc(-c2c[nH]c3ncc(F)cc23)c2cncnc21 [Compound C15]
IC50: > 100 µM

COC(=O)[C@@H]1C2CCC(CC2)[C@H]1n1cc(-c2ccn[nH]2)c2cnc(-c3c[nH]c4ncc(F)cc34)nc21 [Compound B173]
IC50: 1 to 10 µM

O=C(O)Cn1ccc2cnc(-c3c[nH]c4ncc(F)cc34)nc21 [Compound B4]
IC50: 10 to 100 µM

CCOCc1ccc(C(=O)N[C@H]2CCC[C@@H](n3cc(F)c4cnc(-c5c[nH]c6ncc(Cl)cc56)nc43)C2)nc1 [Compound B101]
IC50: > 100 µM

O=CC1=C(n2cc(F)c3cnc(-c4c[nH]c5ncc(Cl)cc45)nc32)C2CCC1CC2 [Compound B209]
IC50: 1 to 10 µM

CC(=O)NCCn1cc(-c2c[nH]c3ncc(F)cc23)c2cncnc21 [Compound C12]
IC50: > 100 µM

CNC(=O)CNC(=O)[C@H]1C2CCC(CC2)[C@@H]1n1cc(Cl)c2cnc(-c3c[nH]c4ncc(F)cc34)nc21 [Compound B146]
IC50: 1 to 10 µM

C[C@@]1(C(=O)O)CCCC[C@H]1n1cc(Cl)c2cnc(-c3c[nH]c4ncc(F)cc34)nc21 [Compound B72]
IC50: < 1 µM

O=C(O)[C@H]1C2CCC(CC2)C1n1ccc2cnc(-c3c[nH]c4ncc(F)cc34)nc21 (stereo partly shown) [Compound B120]
IC50: < 1 µM

CNC(=O)[C@@H]1CCCC[C@H]1n1cc(F)c2cnc(-c3c[nH]c4ncc(Cl)cc34)nc21 (single isomer, unassigned) [Compound B93]
IC50: 1 to 10 µM

CCOC(=O)[C@@H]1C2CCC(CC2)[C@H]1n1cc(-c2ccc(O)cc2)c2cnc(-c3c[nH]c4ncc(F)cc34)nc21 [Compound B178]
IC50: 10 to 100 µM

O=C(O)[C@@H]1C2CCC(CC2)C1n1cc(Cl)c2cnc(-c3c[nH]c4ncc(F)cc34)nc21 (stereo partly shown) [Compound B138]
IC50: < 1 µM

Fc1cnc2[nH]cc(-c3ncc4c(F)cn(CC5CCCNC5)c4n3)c2c1 (stereo not shown) [Compound B60]
IC50: 10 to 100 µM

C[C@@]1(C(=O)O)CCCC[C@@H]1n1cc(Cl)c2cnc(-c3c[nH]c4ncc(F)cc34)nc21 [Compound B83]
IC50: 1 to 10 µM

CCOC(=O)[C@@H]1C2CCC(CC2)[C@H]1n1ccc2ccc(-c3c[nH]c4ncc(F)cc34)nc21 [Compound B199]
IC50: 10 to 100 µM

O=C(O)[C@@H]1C2CCC(CC2)[C@H]1n1cc(C#CC2CC2)c2cnc(-c3c[nH]c4ncc(F)cc34)nc21 [Compound B153]
IC50: < 1 µM

CCC(C)(C(=O)NCC(F)(F)F)n1ccc2cnc(-c3c[nH]c4ncccc34)nc21 (stereo not shown) [Compound B97]
IC50: > 100 µM

CCOC(=O)[C@@H]1C2CCC(CC2)[C@H]1n1cc(C(C)C)c2cnc(-c3c[nH]c4ncc(F)cc34)nc21 [Compound B180]
IC50: 10 to 100 µM

CC(C)(C)OC(=O)NCCn1cc(-c2c[nH]c3ncc(F)cc23)c2cncnc21 [Compound C13]
IC50: > 100 µM

CC(C)(C)OC(=O)N1CCC(Cn2cc(F)c3cnc(-c4c[nH]c5ncc(F)cc45)nc32)CC1 [Compound B78]
IC50: > 100 µM

CCOC(=O)[C@@H]1C2CCC(CC2)[C@H]1n1cc(C(F)(F)F)c2cnc(-c3c[nH]c4ncc(F)cc34)nc21 [Compound B177]
IC50: 10 to 100 µM

O=C(O)[C@@H]1CCCC[C@H]1n1cc(F)c2cnc(-c3c[nH]c4ncc(Cl)cc34)nc21 [Compound B87]
IC50: < 1 µM

CNC(=O)[C@@H]1CCCC[C@H]1n1cc(F)c2cnc(-c3c[nH]c4ncc(Cl)cc34)nc21 (racemic) [Compound B95]
IC50: 10 to 100 µM

COC(=O)[C@H](CO)NC(=O)Cn1ccc2c(-c3c[nH]c4ncc(F)cc34)ncnc21 [Compound A13]
IC50: > 100 µM

C[C@@]1(C(=O)O)CCCC[C@H]1n1cc(C(F)(F)F)c2cnc(-c3c[nH]c4ncc(F)cc34)nc21 [Compound B74]
IC50: < 1 µM

CN(C)C(=O)N1CCCCC1Cn1cc(F)c2cnc(-c3c[nH]c4ncc(F)cc34)nc21 (stereo not shown) [Compound B86]
IC50: 1 to 10 µM

O=C(O)[C@@H]1C2CCC(CC2)[C@H]1n1cc(-c2ccc(O)cc2)c2cnc(-c3c[nH]c4ncc(F)cc34)nc21 [Compound B160]
IC50: 1 to 10 µM

CCOC(=O)C1=CCCCC1n1cc(F)c2cnc(-c3c[nH]c4ncc(Cl)cc34)nc21 (stereo not shown) [Compound B98]
IC50: > 100 µM

CNC(=O)C1=C(n2cc(F)c3cnc(-c4c[nH]c5ncc(Cl)cc45)nc32)C2CCC1CC2 [Compound B221]
IC50: 1 to 10 µM

CCOC(=O)[C@H]1C2CCC(CC2)[C@@H]1n1ccc2cnc(-c3c[nH]c4ncc(Cl)cc34)nc21 [Compound B128]
IC50: 10 to 100 µM

O=C(O)[C@H]1C2CCC(CC2)[C@@H]1n1cc(-c2cccnc2)c2cnc(-c3c[nH]c4ncc(F)cc34)nc21 [Compound B142]
IC50: < 1 µM

CCOCCOCCOCCN(C)C(=O)[C@@H]1CCCC[C@H]1n1ccc2cnc(-c3c[nH]c4ncc(F)cc34)nc21 [Compound B26]
IC50: 10 to 100 µM

CNC(=O)[C@@H]1CCCCC1n1cc(F)c2cnc(-c3c[nH]c4ncc(Cl)cc34)nc21 (stereo partly shown) [Compound B94]
IC50: 10 to 100 µM

CNC(=O)N[C@@H]1CCC[C@@H](n2ccc3cnc(-c4c[nH]c5ncc(F)cc45)nc32)C1 [Compound B65]
IC50: 1 to 10 µM

CNC(=O)N1CCCC(Cn2cc(F)c3cnc(-c4c[nH]c5ncc(F)cc45)nc32)C1 (stereo not shown) [Compound B61]
IC50: 1 to 10 µM

CCOCCOCCOCCNC(=O)[C@H]1CCC[C@@H](n2ccc3cnc(-c4c[nH]c5ncc(F)cc45)nc32)C1 [Compound B46]
IC50: 10 to 100 µM

O=C(O)[C@H]1C2CCC(CC2)C1n1cc(Cl)c2cnc(-c3c[nH]c4ncc(F)cc34)nc21 (single isomer, unassigned) [Compound B132]
IC50: < 1 µM

CN(C)C(=O)NCCn1cc(-c2c[nH]c3ncc(F)cc23)c2cncnc21 [Compound C16]
IC50: > 100 µM

N[C@H]1C2CCC(CC2)[C@@H]1n1cc(Cl)c2cnc(-c3c[nH]c4ncc(F)cc34)nc21 [Compound B167]
IC50: 1 to 10 µM

CCOC(=O)[C@@H]1C2CCC(CC2)[C@H]1n1cc(-c2cccnc2)c2cnc(-c3c[nH]c4ncc(F)cc34)nc21 [Compound B181]
IC50: 1 to 10 µM

O=C(O)[C@@H]1C2CCC(CC2)[C@H]1n1cc(-c2ccccc2)c2cnc(-c3c[nH]c4ncc(F)cc34)nc21 [Compound B150]
IC50: 1 to 10 µM

O=C(O)[C@H]1C2CCC(CC2)[C@@H]1n1cc(Cl)c2cnc(-c3c[nH]c4ncc(F)cc34)nc21 [Compound B127]
IC50: < 1 µM

COC(=O)[C@@]1(C)CCCC[C@H]1n1cc(Cl)c2cnc(-c3c[nH]c4ncc(F)cc34)nc21 [Compound B81]
IC50: > 100 µM

CCOC(=O)[C@@H]1C2CCC(CC2)[C@H]1n1cc(F)c2cnc(-c3c[nH]c4ncc(C(F)(F)F)cc34)nc21 [Compound B217]
IC50: > 100 µM

O=C(O)Cn1cc(-c2c[nH]c3ncc(F)cc23)c2cncnc21 [Compound C4]
IC50: > 100 µM

O=C(O)[C@@H]1C2CCC(CC2)[C@H]1n1cc(C#CCC2CC2)c2cnc(-c3c[nH]c4ncc(F)cc34)nc21 [Compound B152]
IC50: 10 to 100 µM

O=C(O)CCn1cc(-c2c[nH]c3ncc(F)cc23)c2cncnc21 [Compound C5]
IC50: > 100 µM

O=C(N[C@H]1CCC[C@@H](n2cc(F)c3cnc(-c4c[nH]c5ncc(Cl)cc45)nc32)C1)c1ccccn1 [Compound B96]
IC50: > 100 µM

CCOCCCCCOCCNC(=O)N[C@@H]1CCC[C@H](n2ccc3cnc(-c4c[nH]c5ncc(F)cc45)nc32)C1 [Compound B38]
IC50: > 100 µM

CNC(=O)N[C@H]1C2CCC(CC2)[C@@H]1n1cc(Cl)c2cnc(-c3c[nH]c4ncc(F)cc34)nc21 [Compound B168]
IC50: 1 to 10 µM

O=C(O)[C@H]1CCCC1n1ccc2cnc(-c3c[nH]c4ncc(F)cc34)nc21 (single isomer, unassigned) [Compound B22]
IC50: 1 to 10 µM

Source: patent US11014941B2, “Pyrrolopyrimidine derivatives useful as inhibitors of influenza virus replication” (priority 2017, dated 2021)
